# In patent publication US10577356B2, “Beta-arrestin-biased cannabinoid CB1 receptor agonists and methods for making and using them” (priority 2014, dated 2020):
# Entries after “also recorded” stand apart in the source; their conditions may differ.
# How the values were obtained:
# [1] = molecular target: T1, CB1 (Homo sapiens, UniProt P21554); assay: GTPγS stimulation levels in hCB1/HEK cells (FIG. 9); format: biochemical; parameters: expressed in transfected cells; host or cells: HEK cells (hCB1/HEK); conditions: compound applied alone
# Protocol: (§1) Compounds were tested using a GTPγS assay as previously described (Shore D M, et al. J Biol Chem. 2014; 289(9):5828-45; incorporated herein by reference in its entirety). Compounds were tested using an ERK assay as previously described (Kapur A, et al. J Biol Chem. 2009; 284:29817-29827; incorporated herein by reference in its entirety).
# Target sequence in this assay (P21554 whole entry): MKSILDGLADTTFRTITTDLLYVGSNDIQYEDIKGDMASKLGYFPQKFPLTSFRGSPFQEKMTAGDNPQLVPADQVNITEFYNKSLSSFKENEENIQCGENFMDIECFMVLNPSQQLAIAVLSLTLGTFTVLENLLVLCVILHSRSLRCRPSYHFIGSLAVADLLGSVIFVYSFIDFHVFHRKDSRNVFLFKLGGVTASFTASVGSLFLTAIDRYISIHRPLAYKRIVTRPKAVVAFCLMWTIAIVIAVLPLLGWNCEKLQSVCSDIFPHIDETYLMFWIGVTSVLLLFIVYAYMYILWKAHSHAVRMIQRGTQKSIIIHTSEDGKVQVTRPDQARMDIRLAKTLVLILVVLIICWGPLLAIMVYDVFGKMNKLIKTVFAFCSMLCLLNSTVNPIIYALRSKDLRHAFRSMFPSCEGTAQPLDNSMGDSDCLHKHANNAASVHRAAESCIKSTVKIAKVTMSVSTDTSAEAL
# [2] = molecular target: T1, CB1; assay: Effect on CP55,940 binding (Bmax) at CB1 (FIG. 3); conditions: compared with ORG27569
# Target sequence in this assay (P21554 whole entry, species assumed): as the sequence (P21554 whole entry) above
# [3] = molecular target: T2, CB1 (Mus musculus, UniProt P47746); assay: Basal G protein signaling, GTP-gamma-S binding, compound applied alone, membranes (FIG. 4-7); format: biochemical
# T2 construct: from tissue
# T2 sequence (P47746 whole entry): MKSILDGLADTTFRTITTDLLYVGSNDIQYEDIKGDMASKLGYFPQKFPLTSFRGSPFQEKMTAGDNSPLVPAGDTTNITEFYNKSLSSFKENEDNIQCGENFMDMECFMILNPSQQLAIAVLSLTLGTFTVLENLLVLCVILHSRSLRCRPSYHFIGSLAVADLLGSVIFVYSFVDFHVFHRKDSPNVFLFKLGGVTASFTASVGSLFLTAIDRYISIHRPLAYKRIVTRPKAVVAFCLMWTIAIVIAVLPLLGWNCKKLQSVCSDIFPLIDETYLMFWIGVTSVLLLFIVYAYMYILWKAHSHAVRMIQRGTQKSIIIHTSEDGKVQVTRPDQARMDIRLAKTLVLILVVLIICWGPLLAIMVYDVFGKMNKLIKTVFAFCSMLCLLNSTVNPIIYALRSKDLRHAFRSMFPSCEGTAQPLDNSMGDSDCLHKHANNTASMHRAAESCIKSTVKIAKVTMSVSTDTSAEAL
# Protocol: as §1
# [4] = molecular target: T1, CB1; assay: Antagonism of CP55,940's [35S]GTPγS signaling / allosteric modulation of CB1 (FIG. 3); format: biochemical; conditions: compared with ORG27569
# Protocol: as §1
# Target sequence in this assay (P21554 whole entry, species assumed): as the sequence (P21554 whole entry) above
# [5] = molecular target: T1, CB1; assay: ERK assay, pERK production in cells (FIG. 8, FIG. 10); format: cell-based; conditions: compound applied alone
# Protocol: as §1
# Target sequence in this assay (P21554 whole entry, species assumed): as the sequence (P21554 whole entry) above
Structure (SMILES),GTP-gamma-S binding at the human CB1 receptor [1],"effect on CP55,940's Bmax [2]",effect on basal G protein signaling (GTP-gamma-S binding) [3],allosteric modulation of CB1 (effects on binding and G protein-mediated signaling) [4],"antagonism of CP55,940's [35S]GTPλS signaling [4]",ERK signaling / pERK production [5]
"CCc1c(C(=O)NCCc2ccc(N3CCCCC3)cc2)[nH]c2ccc(Cl)cc12 [ORG27569, reference compound]",causes a decrease (including below basal),,,,,
"CCc1c(C(=O)NC[C@H](O)c2ccc(N3CCCCC3)cc2)[nH]c2ccc(Cl)cc12 [Compound 2, 5-Chloro-3-ethyl-N-[(2R)-2-hydroxy-2-[4-(piperidin-1-yl)phenyl]ethyl]-1H-indole-2-carboxamide]",,"improves CP55,940's Bmax better than as ORG27569",partial agonist in membranes; also recorded: does not act as an inverse agonist of [^35S]GTPλS signaling; also recorded: may act as a weak agonist of G protein-mediated signaling,more potent negative allosteric modulator than ORG27569,"antagonizes CP55,940's [^35S]GTPλS signaling as well as ORG27569",
"O=C(NCCc1ccc(N2CCCCC2)cc1)c1[nH]c2ccc(Cl)cc2c1Cc1ccccc1 [Compound 4, 3-Benzyl-5-chloro-N-{2-[4-(piperidin-1-yl)phenyl]ethyl}-1H-indole-2-carboxamide]",,"did not affect CP55,940's Bmax",no effect on GTP-gamma-S binding; also recorded: does not act as an inverse agonist of [^35S]GTPλS signaling,,"antagonized CP55,940's [^35S]GTPλS signaling as well as ORG27569",may act as a weak inverse agonist of ERK signaling
"CCCCCCC(C)(C)c1ccc([C@@H]2C[C@H](O)CC[C@H]2CCCO)c(O)c1 [CP55940, reference compound]",causes a rise in GTP-gamma-S binding,,,,,
"CCc1c(C(=O)NC[C@@H](O)c2ccc(N3CCCCC3)cc2)[nH]c2ccc(Cl)cc12 [Compound 1, 5-Chloro-3-ethyl-N-[(2S)-2-hydroxy-2-[4-(piperidin-1-yl)phenyl]ethyl]-1H-indole-2-carboxamide]",,"does not improve CP55,940's Bmax as well as ORG27569",no effect on GTP-gamma-S binding; also recorded: does not act as an inverse agonist of [^35S]GTPλS signaling,less potent and efficacious negative allosteric modulator of CB1 than ORG27569,"does not antagonize CP55,940's [^35S]GTPλS signaling as well as ORG27569",
"CCc1c(C(=O)NCCc2ccc(N3CCCCC3)cc2C2CC2)[nH]c2ccc(Cl)cc12 [Compound 3, 5-Chloro-N-{2-[2-cyclopropyl-4-(piperidin-1-yl)phenyl]ethyl}-3-ethyl-1H-indole-2-carboxamide]",no effect on GTP-gamma-S binding; also recorded: did not have any significant effect on [^35S]GTPλS signaling when applied alone,"does not improve CP55,940's Bmax (and may actually reduce it)",no effect on GTP-gamma-S binding,does not act as an allosteric modulator of CB1,,"robust effect, particularly at early time points, compared to CP (CP55,940); also recorded: does generate an ERK signal"
